In PMC8264055, “Pharmacokinetics of Colistin in the Gastrointestinal Tract of Poultry Following Dosing via Drinking Water and Its Bactericidal Impact on Enteric Escherichia coli” (Frontiers in Veterinary Science, 2021):
Where a name gives a salt, the structure may show the parent alone. Positions of bridges follow the written chain, without caps; N, C: chain ends. Non-standard residues stand in square brackets, D forms with d. Residues, ends and D or L forms follow the SMILES beside them. *: point of attachment. X1 = CC[C@H](C)CCCCC(=O)*; Dab = NCC[C@H](N)C(=O)O

Legend:
enteric E. coli = assay: Enumeration of E. coli in luminal intestinal content on UriSelect 4 agar during and after colistin treatment; assay type: in vivo, Escherichia coli
Text: (§1) This study was approved by the Royal Veterinary College ethics and welfare committee. One hundred Ross 308 broiler chicken (Gallus gallus domesticus) were obtained from an approved supplier and housed in the animal welfare barn (AWB) at the Royal Veterinary College. Poultry were group-housed and fed baby chick crumbs (Smallholder Range, Norfolk, UK), a feed free of coccidiostats and designed to feed from hatching to 6–8 weeks, and given free access to water for the duration of the study. At 13 days, six birds were separated and maintained as a control group for the course of the study with the remaining 94 birds constituting the study group. European Pharmacopeia-compliant Meiji Seika Pharma's colistin sulfate (ColiMeiji®, hereafter “colistin”) consisting of a 78.53% (“as is”) mixture of colistin A (polymyxin E1) and colistin B (polymyxin E2), was per certificate of analysis (CoA) supplied by Wyjolab (Chaillac, France). Potency of colistin (as reported by CoA) was 23,558 IU/mg, and dosing was calculated as equivalent colistin base. Colistin was administered via drinking water to the study group at a dose equal to 75,000 IU/kg/day over a period of 3 days. The volume of colistin stock solution (2,000,000 IU/ml) diluted per 3-L drinking bell (Poultry Drinker 3L, Farm & Country Supplies, Alton, Hampshire, UK) was based on the average bird weight and water consumption measured on the day prior to dosing. Actual dose received every 24 h was back calculated based on measured water consumption for that period and bird weights. Birds were housed in a 25-m^2 floor pen with access to 5 × 3-L drinking bells, refreshed every 24 h. Average relative humidity was 44.5% (range: 29–63%) and average temperature 24°C (range: 20–28°C). Birds were provided a 14-h photoperiod aligned with onset of dosing (0 h) at 07:00.
The study group was sampled at predetermined times pre-dose (0 h), during oral dosing (at 12, 36, and 54 h), at cessation of dosing (72 h), and after dosing (73, 74, 76, 80, 84, 96, 120, and 144 h from the onset of dosing). At each time point, eight birds were sacrificed, except at 12, 36, and 54 h where only six birds were sacrificed. After neck dislocation, cloacal swabs were immediately taken, and the whole small intestine was excised after placing three ligatures (one around the duodenum, one on the ileum just proximally to the cecal attachment, and one distally to include the large intestine). All samples were stored at 4°C for no more than 48 h prior to further analysis. […]
UriSelect 4™ agar (Bio-Rad, Watford, UK) plates were used for enumeration and isolation of E. coli from LIC. […] Bacterial counts in original LIC were back calculated based on the total number of colonies countable on UriSelect 4™ agar. […]

[1] = Colistin content in luminal intestinal content (LIC) by UHPLC-MS/MS, non-compartmental PK analysis; assay type: in vivo, broiler chicken (Gallus gallus domesticus)
Text: as §1
The study group was sampled at predetermined times pre-dose (0 h), during oral dosing (at 12, 36, and 54 h), at cessation of dosing (72 h), and after dosing (73, 74, 76, 80, 84, 96, 120, and 144 h from the onset of dosing). At each time point, eight birds were sacrificed, except at 12, 36, and 54 h where only six birds were sacrificed. After neck dislocation, cloacal swabs were immediately taken, and the whole small intestine was excised after placing three ligatures (one around the duodenum, one on the ileum just proximally to the cecal attachment, and one distally to include the large intestine). All samples were stored at 4°C for no more than 48 h prior to further analysis. All birds in the control group underwent cloacal sampling at matching time points.
Each intestinal specimen was individually processed with a new set of examination gloves and blades to avoid carry over or contamination. The ceca were separated from the small intestine by cutting off the ileum proximally to the ligature. The luminal intestinal content (LIC) was then evacuated through peristaltic massage of the small intestine in a proximal-to-distal direction. Extracted LIC was mixed to ensure a homogenous sample, and 200 mg (±2 mg) aliquots were separated for further testing. Parietal intestinal content (PIC) was collected following LIC; the intestine was inflated with air, straightened, and longitudinally incised with a scalpel blade no. 11. The opened intestine was flattened, and the blade was used to scrape the parietal lining of the intestine. Luminal cecal content (LCC) was extracted in a similar fashion following incision at one end. Aliquots for colistin quantification were stored at −80°C or at 4°C for bacterial enumeration and isolation.
Total colistin content was quantified using a novel ultra-high-performance liquid chromatography-tandem mass spectrometry (UHPLC-MS/MS) method. […]

[2] = during dosing, 75,000 IU/kg/day via drinking water, n = 6, median baseline 3.6 × 10^6 CFU/g
[3] = LIC, nominal dose 75,000 IU/kg/day, NCA sparse option, 6 to 8 birds per time point
[4] = nominal dose 75,000 IU/kg/day via drinking water, from partial AUC, NCA sparse option

CC[C@H](C)CCCCC(=O)N[C@@H](CCN)C(=O)N[C@H](C(=O)N[C@@H](CCN)C(=O)N[C@H]1CCNC(=O)[C@H]([C@@H](C)O)NC(=O)[C@H](CCN)NC(=O)[C@H](CCN)NC(=O)[C@H](CC(C)C)NC(=O)[C@@H](CC(C)C)NC(=O)[C@H](CCN)NC1=O)[C@@H](C)O [colistin, colistin sulfate] (X1-[Dab]T[Dab][Dab][Dab][dL]L[Dab][Dab]T; lactam 4-C)
median E. coli count in LIC at 96, 120 and 144 h (enteric E. coli; after dosing, to end of the experiment, n = 8 per time point): ~5 × 10^5
median E. coli count in LIC at 36 h (enteric E. coli; [2]): 3.9 × 10^3 CFU/g
median E. coli count in LIC at 54 h (enteric E. coli; [2]): 1.56 × 10^4 CFU/g
log reduction in the number of E. coli (enteric E. coli; up to 36 h post-onset of colistin administration): > 3 log
Partial AUC, AUC0-24h (first day) [1, 3]: 54.1 mg·h/kg
Partial AUC, AUC24-48h (second day) [1, 3]: 75.5 mg·h/kg
Partial AUC, AUC48-72h (third day) [1, 3]: 112.6 mg·h/kg
tissue level at time at 72 h ([1]; Ross 308 broiler, luminal intestinal content (LIC), po, 75000 IU/kg/day, 75,000 IU/kg/day via drinking water for 72 h, 72 h, mean of n = 8 birds, read-out: mean colistin content in LIC at cessation of dosing): 4510 ng/g
mean colistin content in LIC, peak ([1]; broiler chickens, colistin sulfate 75,000 IU/kg/day via drinking water for 72 h, 54 h from onset of dosing, mean of n = 6 birds, UHPLC-MS/MS, LOQ 1.1 mg/kg): 5.09 mg/kg
Average colistin luminal intestinal content, 0-48 h (first and second day) [1, 4]: 2.70 mg/kg digesta
Average colistin luminal intestinal content, 24-48 h (second day) [1, 4]: 3.15 mg/kg digesta
